Data as given in patent US20260257186A1, “Tunable Structure of Biodegradable Silk-Based Microcapsules for Soluble and Insoluble Payload Delivery” (MASSACHUSETTS INSTITUTE OF TECHNOLOGY, priority 2021, published 2026).
Values after ≈ are worked out from the molar mass of the structure shown.

Tests used:
[1] = cited from earlier work
[2] = Release of SF/Saf microcapsules, released Saf by UV-Vis; assay type: physicochemical; settings: without silk encapsulation; 10% Pluronic PE 10500 aqueous suspension; FIG. 5C
Protocol: Release of SF/Saf microcapsules: around 5 mg of different SF/Saf microcapsules were dispersed in 50 mL of 10% Pluronic PE 10500 aqueous suspension, wrapped in Al foil and under 20 rpm mind shaking. After certain time intervals, 0.75 mL of suspension was taken for UV-Vis measurement to determine the concentration of released Saf. The characteristic UV absorption peak position of Saf is around 271 nm.
All release and degradation tests were run in triplicates, and the standard errors for the analytical results were used to generate and present error bars.
The surface morphologies of microcapsules structures were investigated using a Zeiss Merlin High-resolution SEM operating at 0.8 kV for low-, medium- and high-resolution imaging. The elemental analysis was carried out on Zeiss Merlin SEM with energy-dispersive X-ray spectroscopy (EDS). Optical images of SF/DA emulsions were taken with a Nikon Eclipse TE2000-E optical microscope. The concentrations of released VC and Saf were determined by ultraviolet-visible (UV-Vis) spectroscopy on a VWR UV-1600PC spectrophotometer. Chemical structures of SF were studied with Fourier transform infrared (FTIR) spectroscopy from a Perkin Elmer Spectrum 65 spectrometer with the attenuated total reflection (ATR) accessory. […] The data was analyzed on volume-based distribution.

Q: Which “solubility in organic solvents” value ([1]; organic solvents) does the source give for `CC(C)N(C)S(=O)(=O)NC(=O)c1cc(-n2c(=O)cc(C(F)(F)F)n(C)c2=O)c(F)cc1Cl` [Saf, Saflufenacil] here?
A: The value was “limited”.

Q: And the “thermal decomposition T” value ([1]; solid powder)?
A: The value was “around 236 °C”.

Q: What about the solubility in water ([1]; water) of the same molecule?
A: The solubility in water was 2000 µg/mL (≈ 3.99 mM).

Q: What about the “burst release of Saf” value [2] of the same molecule?
A: The value was about 25%.
